Test results published in patent US6627771B1, “Gamma amino butyric and acid analogs” (Pfizer Inc, priority 1998, dated 2003).
Read-outs that look alike come from different tables or passages of the source.

Tests used:
[1] = system: sound-induced seizure responses in DBA/2 mice; assay: DBA2 Mouse Model of Anticonvulsant Efficacy; type: in vivo; details: for responders at 30 mg/kg: Mus musculus, po, read-out: DBA2 Mouse Model % Protected
Description: DBA2 Mouse Model of Anticonvulsant Efficacy
All procedures were carried out in compliance with the NIH Guide for the Care and Use of Laboratory Animals under a protocol approved by the Parke-Davis Animal Use Committee. Male DBA/2 mice, 3 to 4 weeks old were obtained from Jackson Laboratories Bar Harbour, Maine. Immediately before anticonvulsant testing, mice were placed upon a wire mesh, 4 inches square, suspended from a steel rod. The square was slowly inverted through 180° and mice observed for 30 seconds. Any mouse falling from the wire mesh was scored as ataxic (Coughenour L. L., McLean J. R., Parker R. B., “A new device for the rapid measurement of impaired motor finction in mice,” Pharm. Biochem. Behav., 1977;6(3):351-3). Mice were placed into an enclosed acrylic plastic chamber (21 cm height, approximately 30 cm diameter) with a high-frequency speaker (4 cm diameter) in the center of the top lid. An audio signal generator (Protek model B-810) was used to produce a continuous sinusoidal tone that was swept linearly in frequency between 8 kHz and 16 kHz once each 10 msec. The average sound pressure level (SPL) during stimulation was approximately 100 dB at the floor of the chamber. Mice were placed within the chamber and allowed to acclimatize for one minute. […] The incidence of all the seizure phases in the drug-treated and vehicle-treated mice was recorded, and the occurrence of tonic seizures were used for calculating anticonvulsant ED50 values by probit analysis (Litchfield J. T., Wilcoxon F. “A simplified method for evaluating dose-effect experiments,” J. Pharmacol., 1949;96:99-113). […] Groups of DBA/2 mice (n=5-10 per dose) were tested for sound-induced seizure responses 2 hours (previously determined time of peak effect) after given drug orally. […] Doses are expressed as weight of the active drug moiety.

System L = System L Binding
[2] = system: Vogel Conflict (punished drinking) in Wistar rats; assay: Vogel Conflict; type: in vivo, rat; details: summary of Table 1
Description: Vogel J. R., Beer B. and Cloody D. E., 1971, reported the procedure used. Basically, in each experiment, 100 näive adult male Wistar rats between 170-220 gm were randomly divided into 10 groups and deprived of water for 48 hours prior to testing. Food was available on Day 1 and removed 24 hours prior to test Day 2.
On Day 1, experimental subjects were placed into the test chambers and allowed to drink 5 mL of water unpunished from a drinking tube on a water bottle mounted on the outside of the chamber. Immediately following the unpunished drinking session, each rat was dosed (PO) with vehicle (1 mL/kg) and returned to their home cage. On test Day 2, rats are dosed with the appropriate treatment and placed in test cages, following a 2-hour absorption period each rat is placed into a test chamber and allowed to drink for 10 minutes. Adjacent to the drink-tube is an optical lickmeter with a photo beam detector that counts the number of licks during active drinking. Every 10 licks, the rats received 1-second shock (1 mA) through the drink tube. Thus, a conflict or anxiety-producing situation exists; rats are motivated to drink, however, they are inhibited by the shock. Anxiety is reflected by the low amounts of drinking. Standard anxiolytic drugs produce effects that allow rats to overcome this behavioral inhibition and drink despite the shock.

[3] = system: Carrageenin-Induced Hyperalgesia; assay: Pain Model (Carrageenin-Induced Hyperalgesia, rat paw pressure test); type: in vivo
Description: Carrageenin-Induced Hyperalgesia
Nociceptive pressure thresholds were measured in the rat paw pressure test using an analgesymeter (Randall-Sellitto Method: Randall L. O., Sellitto J. J., A method for measurement of analgesic activity on inflamed tissue. Arch. Int. Pharmacodyn., 4:409-419 (1957)). Male Sprague-Dawley rats (70-90 g) were trained on this apparatus before the test day. Pressure was gradually applied to the hind paw of each rat and nociceptive thresholds were determined as the pressure (g) required to elicit paw withdrawal. A cutoff point of 250 g was used to prevent any tissue damage to the paw. On the test day, two to three baseline measurements were taken before animals were administered 100 μL of 2% carrageenin by intraplantar injection into the right hind paw.

| SMILES | preventing convulsions ([1]; summary of Table 1) | IC50 (System L) | antianxiety activity [2] | Pain Model % MPE 1 Hour [3] | Pain Model % MPE 2 Hour [3] | antihyperalgesic activity ([3]; summary of Table 1) | responders at 30 mg/kg ([1]; 1 Hr @ 30 m/k) | responders at 30 mg/kg ([1]; 2 Hr @ 30 m/k) |
| --- | --- | --- | --- | --- | --- | --- | --- | --- |
| NC[C@H](CC(=O)O)C1CCCC1 [4R+, 4(R)-Amino-3-cyclopentyl-butyric Acid] | especially active | 198 µM | especially active | 36 % MPE | 13.7 % MPE | especially active | – | – |
| NC[C@@H](CC(=O)O)C1CCCC1 [5S−, (S)-4-Amino-3-cyclopentyl-butyric Acid] | – | 476 µM | – | 35 % MPE | 24 % MPE | – | – | – |
| NCC(CC(=O)O)C1CCC1 (centres unmarked) [Example 2, 4-Amino-3-cyclobutyl-butyric Acid] | – | 1500 µM | – | −1.7 % MPE | −12.1 % MPE | – | 0% | 40% |
| NCC(CC(=O)O)C1CCCC1 (centres unmarked) [Example 3, 4-Amino-3-cyclopentyl-butyric Acid] | – | 464 µM | – | 73.8 % MPE | 27.7 % MPE | – | – | – |
| NCC(CC(=O)O)CC1CC1 (centres unmarked) [Example 6] | – | 1870 µM | – | 2.3 % MPE | −3.4 % MPE | – | – | – |
| NCC(CC(=O)O)CC1CCC1 (centres unmarked) [Example 7] | – | 2600 µM | – | 1.5 % MPE | −3.4 % MPE | – | – | – |
| NCC(CC(=O)O)CC1CCCC1 (centres unmarked) [Example 8] | – | 4640 µM | – | – | – | – | – | – |
| NCC(CC(=O)O)CC1CCCCC1 (centres unmarked) [Example 9] | – | 5500 µM | – | – | – | – | – | – |
| CC(CN)(CC(=O)O)C1CC1 (centres unmarked) [Example 10] | – | 599 µM | – | −4.3 % MPE | −9.1 % MPE | – | – | – |
| CC(CN)(CC(=O)O)C1CCC1 (centres unmarked) [Example 11] | – | 74 µM | – | 4.2 % MPE | 3.1 % MPE | – | – | – |
| CC(CN)(CC(=O)O)CC1CCC1 (centres unmarked) [Example 12] | – | 105 µM | – | −4.2 % MPE | −5.2 % MPE | – | – | – |
| CC(CN)(CC(=O)O)CC1CCCC1 (centres unmarked) [Example 13] | – | 1040 µM | – | – | – | – | – | – |
